“Also recorded” adds a separate entry of the source.
Experiments:
LCAD = assay: O-GlcNAc co-immunoprecipitation from heart: LCAD; format: in vivo, C57BL/6J mice; settings: Adropin-treated HFpEF mice, relative to levels in chow mice / HFpEF
Text: (§1) Animal Care and Use. Male C57BL/6J 8-week-old mice were obtained from the Jackson Laboratory and maintained on chow for 4 weeks to acclimate to their new environment. Animals were housed in the University of Pittsburgh animal facility under standard conditions with ad libitum access to water and food and maintained on a constant 12-hour light/dark cycle. At 12 weeks of age, the mice were exposed to normal chow (Chow; 60% carbohydrate, 26% protein, 14% fat), or a combination of high-fat diet (HFD; 20% carbohydrate, 20% protein, 60% fat) plus No-nitro-L-arginine methyl ester (L-NAME: 0.5 g/L) supplemented in their drinking water after adjusting the pH to 7.4 with 1N NaOH to induce HFpEF [10]. For cohort 1, the mice were subject to the HFpEF diet for 15 weeks. For cohort 2, after 8 weeks of diet, mice were randomly assigned to a control or treatment group receiving daily intraperitoneal injections of either vehicle or recombinant adropin at 450 nmol/kg animal weight prepared in PBS with 0.1% BSA for the remaining 5 weeks of the study. L-NAME supplemented drinking water was changed weekly and adropin was made fresh and sterile filtered before each use.
Co-Immunoprecipitation. […] Images were obtained using LiCor Odyssey CLx System and protein densitometry was measured using the LiCor Image Studio Lite Ver. […]

[1] = test system: hexosamine biosynthesis pathway (HBP); assay: Metabolomics of hearts, HFpEF vs HFpEF+Adropin; format: in vivo, C57BL/6J mice; settings: heart; for cardiac hexose and pyruvate levels: Adropin-treated HFpEF mice; for hexosamine biosynthesis pathway (metabolites related to UDP-GlcNAc biosynthesis), untargeted BioCyc pathway analysis: vehicle-treated vs adropin-treated HFpEF groups
Text: as §1
Quantitative Metabolomics. Metabolic quenching and polar metabolite pool extraction was performed by adding ice cold 80% methanol (aqueous) at a ratio of 1:15 wt input tissue:vol. (13 C1)-creatinine, (D3)-taurine, (D3)-lactate and (D3)-alanine were added to the sample lysates as an internal standard for a final concentration of […]. Samples are homogenized using an MP Bio FastPrep system using Matrix D (ceramic sphere) for 60 seconds at 60 hz. The supernatant was then cleared of protein by centrifugation at 16,000 g. 2 μL of cleared supernatant was subjected to online LC-MS analysis. Analyses were performed by untargeted liquid chromatography-high-resolution mass spectrometry (LC-HRMS). Briefly, samples were injected via a Thermo Vanquish UHPLC and separated over a reversed phase. Thermo HyperCarb porous graphite column (2.1×100 mm, […]) maintained at 55° C. For the 20 min LC gradient, the mobile phase consisted of the following: solvent A (water/0.1% FA) and solvent B (ACN/0.1% FA). The gradient was the following: 0-1 min 1% B, increase to 15% B over 5 min, continue increasing to 98% B over 5 min, hold at 98% B for five min, re-equillibrate at 1% B for five min. The Thermo IDX tribrid mass spectrometer was operated in both positive and negative ion mode, scanning in ddMS2 mode (2 scans) from 70 to 800 m/z at 120,000 resolution with an AGC target of 2e5 for full scan, 2e4 for ms2 scans using HCD fragmentation at stepped 15, 35, 50 collision energies. Source ionization setting was 3.0 and 2.4 kV spray voltage, respectively, for positive and negative mode. Source gas parameters were 35 sheath gas, 12 auxiliary gas at 320° C., and 8 sweep gas. Calibration was performed prior to analysis using the Pierce™ FlexMix Ion Calibration Solutions. Integrated peak areas were then extracted manually using Quan Browser (Thermo Fisher Xcalibur ver. 2.7). Untargeted differential comparisons were performed using Compound Discoverer 3.0 to generate a ranked list of significant compounds with tentative identifications from BioCyc, KEGG, and internal compound databases. Purified standards were then purchased and compared in retention time, m/z, along with ms2 fragmentation patterns to validate the identity of significant hits.

HFpEF mice [2] = assay: Heart, lung and liver mass after four weeks of Adropin in HFpEF mice (Example 1); format: in vivo
Method: Administration of Recombinant Adropin. Mice received low-fat chow or HFpEF diet for 10 weeks. For the following 4 weeks, the mice were maintained on respective diets and received daily injections of recombinant Adropin. Body weight was measured every day during the four weeks of treatment.

GPR19 = settings: previous work from our group; cited from earlier work
HFpEF mice [3] = assay: Echocardiography, cohort 2; format: in vivo, C57BL/6J mice; settings: HFpEF mice treated with Adropin 450 nmol/kg daily i.p.
Text: Twelve week-old C57BL/6J wild-type male mice were exposed to normal chow, or a combination of 60% high fat diet plus N^ω-nitro-L-arginine methyl ester (L-NAME: 0.5 g/L in drinking water) to induce HFpEF. After 8 weeks of diet, mice were randomly assigned to a control HFpEF group, or to a group receiving daily intraperitoneal injections of recombinant Adropin (450 nmol/kg) for the remaining weeks of the study. All animal experiments were approved by the University of Pittsburgh Institutional Animal Care and Use Committee. […] These changes occurred in the absence of systolic dysfunction (FIG. 6). Each marker of cardiac dysfunction was absent in HFpEF mice treated with Adropin (FIG. 6).
Animal Care and Use. Male C57BL/6J 8-week-old mice were obtained from the Jackson Laboratory and maintained on chow for 4 weeks to acclimate to their new environment. […]
Echocardiography. Mice were anesthetized using isofluorane (1.5%-2.0% v/v by inhalation) and monitored for cardiac functional parameters in the supine position using a Visual Sonics Vevo 3100. […] The left atrial area was quantified in the apical 4-chamber view by tracing the border of the left atrium. Markers of systolic and diastolic function were calculated using standard echocardiography equations. […] Image analysis was performed independently by a blinded sonographer and all parameters were measured at least 3 times, and averages are presented.

[4] = test system: hearts isolated from chow-fed mice; settings: cited from earlier work

Substance: Adropin: recombinant Adropin peptide hormone encoded by the ENHO gene; full-length (SEQ ID NO: 1) or cleaved product of amino acids 34-76 (SEQ ID NO: 2) (CHSRSADVDSLSESSPNSSPGPCPEKAPPPQKPSHEGSYLLQP)
- LCAD O-GlcNAcylation (LCAD): restored; also recorded: reduced
- cardiac hexose and pyruvate levels [1]: trend towards decreased
- cardiac hexose and pyruvate levels ([1]; listed as adropin): trend towards restored
- abundance of metabolites used to generate UDP-GlcNAc (GlcNAc-6-P, uridine, coenzyme A) ([1]; relative to HFpEF mice): significant increase
- hexosamine biosynthesis pathway (metabolites related to UDP-GlcNAc biosynthesis), untargeted BioCyc pathway analysis [1]: major metabolomic differences; also recorded: modulated
- hexosamine biosynthesis pathway (metabolites related to UDP-GlcNAc biosynthesis), untargeted BioCyc pathway analysis ([1]; listed as adropin): major metabolomic difference; also recorded: inhibits
- lung or liver mass (HFpEF mice [2]; after 4 weeks): no differences were observed
- average LV mass (FIG. 3A; cardiac hypertrophy) (HFpEF mice [2]; following 4 weeks of Adropin, vs HFpEF mice without treatment): lower; also recorded: reduces
- Adropin function in cardiac cells (GPR19): dependent on GPR19
- markers of cardiac (diastolic) dysfunction: increased heart/LV mass, decreased cardiac output, increased IVRT, increased LV MPI (HFpEF mice [3]): absent; also recorded: improved
- markers of cardiac (diastolic) dysfunction: increased heart/LV mass, decreased cardiac output, increased IVRT, increased LV MPI (HFpEF mice [3]; listed as adropin): absent; also recorded: attenuates
- cardiac contractility ([4]; acute adropin treatment, hearts isolated from chow-fed mice [32]): increase
- effect on cardiac contractility after exposure to a long-term HFD ([4]; ex vivo perfusion studies [33]): lost

Source: US20260091136A1, “USING ENHO GENE THERAPY TO TREAT CARDIOMETABOLIC DISEASE” (University of Pittsburgh-of the Commonwealth System of …, priority 2023, published 2026)
